# Measurements: patent US20160158317A1, “Antimicrobial Peptide Variants and Polynucleotides Encoding Same” (Adenium Biotech A/S, priority 2010, published 2016)
# Where a SMILES comes first, the peptide text is derived from it. Bridges are numbered along the chain shown (N, C = ends).
# Experiment: Determination of the protein binding (90% serum, 30 kDa filter, HPLC)
# Assay type: in vitro ADME
# Conditions: serum
# Description: Protein binding assays were performed as follows. The purified peptides were mixed with 90% serum and centrifuged through a 30 kDa filter. The ultra-filtrate and the non filtrated serum samples were quantified by HPLC measurements and the protein binding was subsequently calculated.
row,Structure (SMILES),fraction unbound
1,"CC(C)[C@@H]1NC(=O)CNC(=O)[C@H](CC(N)=O)NC(=O)[C@H](CCCNC(=N)N)NC(=O)[C@H](Cc2ccc(O)cc2)NC(=O)[C@H](C(C)C)NC(=O)[C@@H]2CSSC[C@H](NC(=O)[C@H](Cc3ccccc3)NC(=O)[C@H](CCCNC(=N)N)NC1=O)C(=O)N[C@@H](Cc1c[nH]cn1)C(=O)N[C@@H](CCCNC(=N)N)C(=O)N[C@@H](CCCNC(=N)N)C(=O)N[C@H](C(=O)N[C@@H](CC(N)=O)C(=O)O)CSSC[C@H](NC(=O)[C@H](Cc1ccccc1)NC(=O)CN)C(=O)N[C@@H](Cc1c[nH]c3ccccc13)C(=O)N[C@@H](CC(N)=O)C(=O)N[C@@H](C(C)C)C(=O)N2 [compound 245] (H-GFCWNVCVYRNGVRFCHRRCN-OH; disulfide 3-20, 7-16 (inferred); N-terminus and C-terminus assumed)",0.15
2,"CC(C)[C@@H]1NC(=O)CNC(=O)[C@H](CC(N)=O)NC(=O)[C@H](CCCNC(=N)N)NC(=O)[C@H](Cc2ccc(O)cc2)NC(=O)[C@H](C(C)C)NC(=O)[C@@H]2CSSC[C@H](NC(=O)CNC(=O)[C@H](CCCNC(=N)N)NC1=O)C(=O)N[C@@H](Cc1c[nH]cn1)C(=O)N[C@@H](CCCNC(=N)N)C(=O)N[C@@H](CCCNC(=N)N)C(=O)N[C@H](C(=O)N[C@@H](CC(N)=O)C(=O)O)CSSC[C@H](NC(=O)[C@H](Cc1ccccc1)NC(=O)CN)C(=O)N[C@@H](Cc1c[nH]c3ccccc13)C(=O)N[C@@H](CC(N)=O)C(=O)N[C@@H](C(C)C)C(=O)N2 [compound 246] (H-GFCWNVCVYRNGVRGCHRRCN-OH; disulfide 3-20, 7-16 (inferred); N-terminus and C-terminus assumed)",0.21
3,"CC[C@H](C)[C@@H]1NC(=O)[C@H](CCCNC(=N)N)NC(=O)[C@H](C(C)C)NC(=O)CNC(=O)[C@H](CC(N)=O)NC(=O)[C@H](CCCNC(=N)N)NC(=O)[C@H](Cc2ccc(O)cc2)NC(=O)[C@H](C(C)C)NC(=O)[C@@H]2CSSC[C@H](NC1=O)C(=O)N[C@@H](Cc1c[nH]cn1)C(=O)N[C@@H](CCCNC(=N)N)C(=O)N[C@@H](CCCNC(=N)N)C(=O)N[C@H](C(=O)N[C@@H](CC(N)=O)C(=O)O)CSSC[C@H](NC(=O)[C@H](Cc1ccccc1)NC(=O)CN)C(=O)N[C@@H](Cc1c[nH]c3ccccc13)C(=O)N[C@@H](CC(N)=O)C(=O)N[C@@H](C(C)C)C(=O)N2 [compound 248] (H-GFCWNVCVYRNGVRICHRRCN-OH; disulfide 3-20, 7-16 (inferred); N-terminus and C-terminus assumed)",0.42
4,"CC(C)C[C@@H]1NC(=O)[C@H](CCCNC(=N)N)NC(=O)[C@H](C(C)C)NC(=O)CNC(=O)[C@H](CC(N)=O)NC(=O)[C@H](CCCNC(=N)N)NC(=O)[C@H](Cc2ccc(O)cc2)NC(=O)[C@H](C(C)C)NC(=O)[C@@H]2CSSC[C@H](NC1=O)C(=O)N[C@@H](Cc1c[nH]cn1)C(=O)N[C@@H](CCCNC(=N)N)C(=O)N[C@@H](CCCNC(=N)N)C(=O)N[C@H](C(=O)N[C@@H](CC(N)=O)C(=O)O)CSSC[C@H](NC(=O)[C@H](Cc1ccccc1)NC(=O)CN)C(=O)N[C@@H](Cc1c[nH]c3ccccc13)C(=O)N[C@@H](CC(N)=O)C(=O)N[C@@H](C(C)C)C(=O)N2 [compound 249] (H-GFCWNVCVYRNGVRLCHRRCN-OH; disulfide 3-20, 7-16 (inferred); N-terminus and C-terminus assumed)",0.17
5,"CC(C)[C@@H]1NC(=O)CNC(=O)[C@H](CC(N)=O)NC(=O)[C@H](CCCNC(=N)N)NC(=O)[C@H](Cc2ccc(O)cc2)NC(=O)[C@H](C(C)C)NC(=O)[C@@H]2CSSC[C@H](NC(=O)[C@H](CC(N)=O)NC(=O)[C@H](CCCNC(=N)N)NC1=O)C(=O)N[C@@H](Cc1c[nH]cn1)C(=O)N[C@@H](CCCNC(=N)N)C(=O)N[C@@H](CCCNC(=N)N)C(=O)N[C@H](C(=O)N[C@@H](CC(N)=O)C(=O)O)CSSC[C@H](NC(=O)[C@H](Cc1ccccc1)NC(=O)CN)C(=O)N[C@@H](Cc1c[nH]c3ccccc13)C(=O)N[C@@H](CC(N)=O)C(=O)N[C@@H](C(C)C)C(=O)N2 [compound 251] (H-GFCWNVCVYRNGVRNCHRRCN-OH; disulfide 3-20, 7-16 (inferred); N-terminus and C-terminus assumed)",0.29
